From the supplement of paper PMC7017272
± gives the standard deviation of the averaged measurements.

Columns and labels:
Conditions in all cases: treatment time: 3 days
UT-SCC-73 = test: drug sensitivity score (DSS); higher = more sensitive; extreme values may be limits of the assay
Procedure, shortened: (§1)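 HPV-negative HNSCC cell lines were plated at 500 cells/well in 384-well plates, either on plastic, on wells coated with Matrigel or Myogel (500 µg/mL), or embedded in Matrigel or Myogel plus rat collagen I. Each compound was tested at five 10-fold concentrations over 3 days. Viability was measured by CellTiter-Glo 2.0 luminescence, and IC50, maximal inhibition and drug sensitivity score came from percent-inhibition dose–response curves fitted in the FIMM pipeline after normalisation to vehicle (0.1% DMSO) and cell-killing control wells.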

UT-SCC-28 = test: as above
Procedure, shortened: as §1

UT-SCC-40 = test: as above
Procedure, shortened: as §1

UT-SCC-42B = test: as above
Procedure, shortened: as §1

UT-SCC-24B = test: as above
Procedure, shortened: as §1

UT-SCC-8 = test: as above
Procedure, shortened: as §1

UT-SCC-81 = test: as above
Procedure, shortened: as §1

UT-SCC-42A = test: as above
Procedure, shortened: as §1

UT-SCC-24A = test: relative IC50 (midpoint of the fitted curve; maximal inhibition may be below 50%); higher = less potent
Method: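 HNSCC cell lines (500 cells/well, 384-well) were cultured on plastic, on top of (2D) or embedded (3D) in Matrigel or human leiomyoma matrix Myogel (500 ug/mL; Myogel 3D mixed with rat collagen I). Cells were treated for 3 days with 5 ten-fold concentrations of each drug, and viability was read by CellTiter-Glo. Viability was normalised to DMSO (0% inhibition) and 100 uM benzethonium chloride (100% inhibition) controls and fitted with the FIMM DSRT pipeline to give IC50 (nM), maximal % inhibition and the drug sensitivity score (DSS). Suffixes _1/_2/_3 on drug names are replicates.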

[1] = culture condition: on top of Myogel
[2] = culture condition: plastic 2D (no matrix)
[3] = culture condition: embedded in Matrigel
[4] = culture condition: embedded in Myogel + collagen I
[5] = culture condition: on top of Matrigel

O=C(NC[C@H](O)CO)c1ccncc1Nc1ccc(I)cc1F [Pimasertib]
drug sensitivity score (UT-SCC-73; [1]): 19.1 ± 1.1 DSS
drug sensitivity score (UT-SCC-73; [2]): 23 ± 0.68 DSS
drug sensitivity score (UT-SCC-28; [3]): 12 ± 2.6 DSS
drug sensitivity score (UT-SCC-28; [4]): 9.97 ± 5.3 DSS
drug sensitivity score (UT-SCC-28; [5]): 11.4 ± 1.6 DSS
drug sensitivity score (UT-SCC-28; [2]): 5.03 ± 1.1 DSS
drug sensitivity score (UT-SCC-40; [3]): 27.63 ± 0.058 DSS
drug sensitivity score (UT-SCC-40; [4]): 20.2 ± 1.9 DSS
drug sensitivity score (UT-SCC-40; [5]): 23.8 ± 1.2 DSS
drug sensitivity score (UT-SCC-40; [1]): 14.9 ± 0.91 DSS
drug sensitivity score (UT-SCC-40; [2]): 15.5 ± 0.85 DSS
drug sensitivity score (UT-SCC-42B; [3]): 24.5 ± 2.7 DSS
drug sensitivity score (UT-SCC-42B; [5]): 16.2 ± 1 DSS
drug sensitivity score (UT-SCC-42B; [1]): 9.77 ± 0.96 DSS
drug sensitivity score (UT-SCC-42B; [2]): 10.1 ± 0.55 DSS
drug sensitivity score (UT-SCC-24B; [3]): 15.6 ± 1.2 DSS
drug sensitivity score (UT-SCC-24B; [4]): 14.4 ± 2 DSS
drug sensitivity score (UT-SCC-24B; [5]): 15 ± 0.9 DSS
drug sensitivity score (UT-SCC-24B; [1]): 9.1 ± 0.61 DSS
drug sensitivity score (UT-SCC-24B; [2]): 20.3 ± 1.8 DSS
drug sensitivity score (UT-SCC-8; [3]): 20.5 ± 1.8 DSS
drug sensitivity score (UT-SCC-8; [4]): 10.7 ± 0.15 DSS
drug sensitivity score (UT-SCC-8; [5]): 18.2 ± 1.3 DSS
drug sensitivity score (UT-SCC-8; [1]): 17 ± 1.6 DSS
drug sensitivity score (UT-SCC-8; [2]): 16.9 ± 1.8 DSS
drug sensitivity score (UT-SCC-81; [3]): 29.9 ± 0.51 DSS
drug sensitivity score (UT-SCC-81; [4]): 9.3 ± 3.1 DSS
drug sensitivity score (UT-SCC-81; [5]): 24 ± 1.8 DSS
drug sensitivity score (UT-SCC-81; [1]): 9.87 ± 0.5 DSS
drug sensitivity score (UT-SCC-81; [2]): 14.9 ± 1.4 DSS
drug sensitivity score (UT-SCC-42A; [3]): 20.9 ± 0.5 DSS
drug sensitivity score (UT-SCC-42A; [4]): 9.43 ± 1.3 DSS
drug sensitivity score (UT-SCC-42A; [5]): 20.5 ± 1.6 DSS
drug sensitivity score (UT-SCC-42A; [1]): 12.8 ± 0.46 DSS
drug sensitivity score (UT-SCC-42A; [2]): 16.33 ± 0.12 DSS
relative IC50 (UT-SCC-24A; [3]): 4.15 nM
relative IC50 (UT-SCC-24A; [4]): 77 nM
relative IC50 (UT-SCC-24A; [5]): 6.19 nM
relative IC50 (UT-SCC-24A; [1]): 105 nM
relative IC50 (UT-SCC-24A; [2]): 10.2 nM
